From patent US11414384B2, “P300/CBP hat inhibitors” (Constellation Pharmaceuticals, Inc., priority 2018, dated 2022) come the findings set out here.

SMILES strings stand for the structures. Where only a bound is given, the exact number is not on record here.

This test deals with p300 HAT domain (residues 1287-1666) (Homo sapiens (Human), UniProt Q09472). Kind of test: p300 HAT SPA assay (scintillation proximity assay, acetylation of biotinylated H3(1-21) peptide). To be noted: p300 HAT domain; average of at least 2 replicate titrations; read-out: P300 HAT SPA IC50. In kind it is biochemical. Here is the method: In a typical experiment the p300 HAT inhibitory activity of the compounds described herein was determined in accordance with the following experimental method.
p300 HAT domain (residues 1287-1666), sequence (Q09472 1287-1666): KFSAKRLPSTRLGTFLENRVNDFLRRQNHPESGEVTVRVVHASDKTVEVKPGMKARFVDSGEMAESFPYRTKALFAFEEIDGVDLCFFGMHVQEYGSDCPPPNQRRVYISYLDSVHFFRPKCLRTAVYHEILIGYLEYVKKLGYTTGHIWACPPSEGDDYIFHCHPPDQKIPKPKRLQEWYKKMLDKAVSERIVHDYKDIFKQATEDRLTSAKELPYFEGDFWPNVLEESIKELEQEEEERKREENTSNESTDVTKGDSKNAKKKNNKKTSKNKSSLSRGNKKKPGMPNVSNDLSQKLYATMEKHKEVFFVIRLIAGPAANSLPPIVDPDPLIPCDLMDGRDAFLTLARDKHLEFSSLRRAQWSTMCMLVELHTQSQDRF
The expressed protein was purified by Ni2+ affinity, followed by anion exchange chromatography. Appropriate fractions were pooled and buffer exchanged into 20 mM Hepes pH 7.5, 150 mM NaCl, and 1 mM TCEP.
35 μL of the reaction volume was transferred to a 384-well streptavidin FlashPlate (PerkinElmer) using a Bravo liquid handler (Velocity 11) and incubated for 1.5 hr at RT. […] Data were analyzed in Genedata to determine inhibitor IC50 values.
A general note: Scintillation proximity formats need no separation of bound from free tracer.
Usually IC50 stands for the concentration that gives 50% inhibition. `CCC(CNC(C(=O)c1c[nH]c2ccccc12)c1ccccc1)c1ccc(Cl)cc1` (single isomer, unassigned) [59 Isomer 2]: the IC50 came to 13800 nM.

With `CCC(CNC(C(=O)c1c[nH]c2ccccc12)c1ccccc1)c1ccc(Cl)cc1` (single isomer, unassigned) [59 Isomer 3], the IC50 was more than 30000 nM. Consider `COc1ccc2c(C(=O)C(NCCc3ccc(Cl)cc3)c3ccccc3)c[nH]c2c1` (single isomer, unassigned) [60 Isomer 1], for which the IC50 was determined as 27800 nM.

`O=C(c1c[nH]c2cc(OCc3ccccc3)ccc12)C(NCCc1ccc(F)cc1)c1ccccc1` (single isomer, unassigned) [61 Isomer 1]: the IC50 was more than 30000 nM. For the molecule `CN1CCC(c2ccc3c(C(=O)C(NCCc4ccc(C#N)cc4)c4ccccc4)c[nH]c3c2)CC1` (single isomer, unassigned) [64 Isomer 1], the half-maximal inhibitory concentration (IC50) amounted to 97 nM.

For `CN1CCC(c2ccc3c(C(=O)C(NCCc4ccc(C#N)cc4)c4ccccc4)c[nH]c3c2)CC1` (single isomer, unassigned) [64 Isomer 2], the IC50 was 80 nM. Then `CC(=O)N1CCC(c2ccc3c(C(=O)C(NCCc4ccc(Cl)cc4)c4ccccc4)c[nH]c3c2)CC1` (single isomer, unassigned) [65 Isomer 1], with more than 30000 nM; and `Cn1cc(-c2ccc3c(C(=O)C(NCCc4ccc(S(N)(=O)=O)cc4)c4ccccc4)c[nH]c3c2)cn1` (single isomer, unassigned) [66 Isomer 1], with 960 nM; and `CNC(=O)c1ccc2c(C(=O)C(NCCc3ccc(C#N)cc3)c3ccccc3)c[nH]c2n1` (single isomer, unassigned) [67 Isomer 1], with 2360 nM. Next, `CNC(=O)c1ccc2c(C(=O)C(NCCc3ccc(C#N)cc3)c3ccccc3)c[nH]c2n1` (single isomer, unassigned) [67 Isomer 2]: more than 5000 nM. Regarding `Cc1cccc2c(C(=O)C(NC(C)Cc3ccc(Cl)cc3Cl)c3ccccc3)c[nH]c12` (single isomer, unassigned) [68 Isomer 2], the IC50 is more than 30000 nM. Next, `Cc1cccc2c(C(=O)C(NC(C)Cc3ccc(Cl)cc3Cl)c3ccccc3)c[nH]c12` (single isomer, unassigned) [68 Isomer 3]: more than 30000 nM; `Cc1cccc2c(C(=O)C(NC(C)Cc3ccc(Cl)cc3Cl)c3ccccc3)c[nH]c12` (single isomer, unassigned) [68 Isomer 4]: more than 30000 nM; `CCNC(=O)c1ccc2c(C(=O)C(NCC(C)c3ccc(C#N)cc3)c3ccccc3)cnn2c1` (single isomer, unassigned) [69 Isomer 1]: 188 nM.

For the molecule `CCNC(=O)c1ccc2c(C(=O)C(NCC(C)c3ccc(C#N)cc3)c3ccccc3)cnn2c1` (single isomer, unassigned) [69 Isomer 2], the IC50 came out at 2870 nM. Then `CCNC(=O)c1ccc2c(C(=O)C(NCC(C)c3ccc(C#N)cc3)c3ccccc3)cnn2c1` (single isomer, unassigned) [69 Isomer 3], with more than 5000 nM; and `CC(CNC(C(=O)c1cnn2cc(C(=O)NC[C@@H](C)O)ccc12)c1ccccc1)c1ccc(C#N)cc1` (single isomer, unassigned) [70 Isomer 1], with more than 2000 nM.

Regarding `CC(CNC(C(=O)c1cnn2cc(C(=O)NC[C@@H](C)O)ccc12)c1ccccc1)c1ccc(C#N)cc1` (single isomer, unassigned) [70 Isomer 2], the IC50 turned out to be 64.3 nM. Next, `CC(CNC(C(=O)c1cnn2cc(C(=O)NC[C@@H](C)O)ccc12)c1ccccc1)c1ccc(C#N)cc1` (single isomer, unassigned) [70 Isomer 3]: 747 nM; `CC(CNC(C(=O)c1cnn2cc(C(=O)NC[C@@H](C)O)ccc12)c1ccccc1)c1ccc(C#N)cc1` (single isomer, unassigned) [70 Isomer 4]: 21.8 nM; `CCNC(=O)c1ccc2c(C(=O)C(NCCc3ccc(C#N)cc3Cl)c3ccccc3)c[nH]c2c1` (single isomer, unassigned) [71 Isomer 1]: more than 2000 nM. Then `CCNC(=O)c1ccc2c(C(=O)C(NCCc3ccc(C#N)cc3Cl)c3ccccc3)c[nH]c2c1` (single isomer, unassigned) [71 Isomer 2], with 17.7 nM; and `Cn1cc(-c2ccc3c(C(=O)C(NCCc4ccc(C#N)cc4Cl)c4ccccc4)c[nH]c3c2)cn1` (single isomer, unassigned) [72 Isomer 1], with 733 nM. `Cn1cc(-c2ccc3c(C(=O)C(NCCc4ccc(C#N)cc4Cl)c4ccccc4)c[nH]c3c2)cn1` (single isomer, unassigned) [72 Isomer 2]: the IC50 is 42.4 nM.

As for `CCNC(=O)c1ccc2c(C(=O)C(NCCc3ccc(C#N)cc3)c3ccccc3)cnn2c1` (single isomer, unassigned) [73 Isomer 1], the IC50 came out at 286 nM. With `CCNC(=O)c1ccc2c(C(=O)C(NCCc3ccc(C#N)cc3)c3ccccc3)cnn2c1` (single isomer, unassigned) [73 Isomer 2], the IC50 stood at 954 nM. Turning to `O=C(c1c[nH]c2cc(N3CCCC3=O)ccc12)C(NCCc1ccc(Cl)cc1)c1ccccc1` (single isomer, unassigned) [74 Isomer 1], the IC50 was determined as 154 nM.

With `O=C(c1c[nH]c2cc(N3CCCC3=O)ccc12)C(NCCc1ccc(Cl)cc1)c1ccccc1` (single isomer, unassigned) [74 Isomer 2], the IC50 was 160 nM. Next, `CCNC(=O)c1ccc2c(C(=O)C(NCC(C)c3ccc(C#N)cc3)c3ccccc3)c[nH]c2c1` (single isomer, unassigned) [75 Isomer 1]: 718 nM; `CCNC(=O)c1ccc2c(C(=O)C(NCC(C)c3ccc(C#N)cc3)c3ccccc3)c[nH]c2c1` (single isomer, unassigned) [75 Isomer 2]: 343 nM. Turning to `CCNC(=O)c1ccc2c(C(=O)C(NCC(C)c3ccc(C#N)cc3)c3ccccc3)c[nH]c2c1` (single isomer, unassigned) [75 Isomer 3], the 50% inhibitory concentration (IC50) worked out at 447 nM. Next, `CCNC(=O)c1ccc2c(C(=O)C(C)NCCc3ccc(C#N)cc3)c[nH]c2c1` (single isomer, unassigned) [76 Isomer 1]: more than 5000 nM. Consider `CCNC(=O)c1ccc2c(C(=O)C(C)NCCc3ccc(C#N)cc3)c[nH]c2c1` (single isomer, unassigned) [76 Isomer 2], for which the IC50 is more than 5000 nM. With `Cn1cc(-c2ccc3c(C(=O)C(NCCc4ccc(F)cc4)c4ccccc4)c[nH]c3c2)cn1` (single isomer, unassigned) [78 Isomer 1], the IC50 was 12900 nM. For the molecule `COc1ccc(CCNC(C(=O)c2c[nH]c3c(C)cccc23)c2ccccc2)cc1` (single isomer, unassigned) [80 Isomer 1], the IC50 stood at 2480 nM.

Regarding `O=C(c1c[nH]c2cc(-c3cccnc3)ccc12)C(NCCc1ccc(F)cc1)c1ccccc1` (single isomer, unassigned) [81 Isomer 1], the IC50 amounted to 12300 nM. For the molecule `Cn1cc(-c2ccc3c(C(=O)C(NCCc4ccc(Cl)cc4)c4ccccc4)c[nH]c3c2)cn1` (single isomer, unassigned) [83 Isomer 1], the IC50 is 1310 nM. Then `Cn1cc(-c2ccc3c(C(=O)C(NCCc4ccc(F)cc4F)c4ccccc4)c[nH]c3c2)cn1` (single isomer, unassigned) [85 Isomer 1], with more than 30000 nM; and `CCn1cc(-c2ccc3c(C(=O)C(NCCc4ccc(Cl)cc4)c4ccccc4)c[nH]c3c2)cn1` (single isomer, unassigned) [86 Isomer 1], with 28100 nM. Then `CNC(=O)Cn1cc(-c2ccc3c(C(=O)C(NCCc4ccc(Cl)cc4)c4ccccc4)c[nH]c3c2)cn1` (single isomer, unassigned) [87 Isomer 1], with 1390 nM; and `Cc1ccc(-c2ccc3c(C(=O)C(NCCc4ccc(Cl)cc4)c4ccccc4)c[nH]c3c2)cn1` (single isomer, unassigned) [88 Isomer 1], with more than 30000 nM. Next, `O=C(c1c[nH]c2cc(-c3ccncc3)ccc12)C(NCCc1ccc(Cl)cc1)c1ccccc1` (single isomer, unassigned) [89 Isomer 1]: 27200 nM.

For the molecule `O=C(c1c[nH]c2cc(-c3ccncc3)ccc12)C(NCCc1ccc(Cl)cc1)c1ccccc1` (single isomer, unassigned) [89 Isomer 2], the IC50 was 966 nM.

For the molecule `O=C(c1c[nH]c2cc(-c3cccnc3)ccc12)C(NCCc1ccc(Cl)cc1)c1ccccc1` (single isomer, unassigned) [90 Isomer 1], the half-inhibitory concentration (IC50) worked out at 967 nM.

Regarding `CC(CNC(C(=O)c1c[nH]c2cc(-c3cnn(C)c3)ccc12)c1ccccc1)c1ccc(Cl)cc1` (single isomer, unassigned) [91 Isomer 1], the IC50 worked out at 3730 nM. On to `CC(CNC(C(=O)c1c[nH]c2cc(-c3cnn(C)c3)ccc12)c1ccccc1)c1ccc(Cl)cc1` (single isomer, unassigned) [91 Isomer 2], for which the concentration for half-maximal inhibition (IC50) is more than 30000 nM. Then `CC(CNC(C(=O)c1c[nH]c2cc(-c3cnn(C)c3)ccc12)c1ccccc1)c1ccc(Cl)cc1` (single isomer, unassigned) [91 Isomer 3], with 6440 nM; and `CC(CNC(C(=O)c1c[nH]c2cc(-c3cnn(C)c3)ccc12)c1ccccc1)c1ccc(Cl)cc1` (single isomer, unassigned) [91 Isomer 4], with 134 nM; and `CC(Cc1ccc(Cl)cc1)NC(C(=O)c1c[nH]c2cc(-c3cnn(C)c3)ccc12)c1ccccc1` (single isomer, unassigned) [92 Isomer 1], with 2100 nM. Then `CC(Cc1ccc(Cl)cc1)NC(C(=O)c1c[nH]c2cc(-c3cnn(C)c3)ccc12)c1ccccc1` (single isomer, unassigned) [92 Isomer 2], with more than 30000 nM; and `CC(Cc1ccc(Cl)cc1)NC(C(=O)c1c[nH]c2cc(-c3cnn(C)c3)ccc12)c1ccccc1` (single isomer, unassigned) [92 Isomer 4], with 2220 nM.
